Source: patent US6809193B2, “Antisense oligonucleotide compositions and methods for the modulation of JNK proteins” (ISIS Pharmaceuticals, Inc., priority 1997, dated 2004)
Strand notation (5' to 3'): a small letter for the sugar, then the base; units joined by * are phosphorothioate-linked, units joined directly phosphodiester-linked; [ ] holds rarer units or linkages, { } end groups; capitals alone tell only the bases. e = 2'-O-(2-methoxyethyl) (MOE); [5mC] = 5-methylcytosine; d = 2'-deoxy (DNA)

Assays:
[1] = test system: rat JNK2 mRNA; assay: Northern assay, rat JNK2 (p54a) mRNA in A10 cells; format: cell-based; conditions: for inhibition of rat JNK2 mRNA levels: Table 22; for capacity to modulate both JNK1 and JNK2 (Pan JNK): rat JNK1 and JNK2 mRNA
Protocol: (§1) In order to study the role of JNK proteins in animal models, oligonucleotides targeted to the genes encoding JNK1, JNK2 and JNK3 of Rattus norvegicus were prepared. These oligonucleotides are 2′-methoxyethoxy, phosphodiester/2′-hydroxyl, phosphorothioate/2′-methoxyethoxy, phosphodiester “gapmers” in which every cytosine residue is 5-methylcytosine (msc). These antisense compounds were synthesized according to the methods of the disclosure. Certain of these oligonucleotides are additionally specifically hybridizable to JNK genes from other species as indicated herein. The oligonucleotides described in this Example were tested for their ability to modulate rat JNK mRNA levels essentially according to the methods described in the preceding Examples, with the exceptions that the cell line used was rat A10 aortic smooth muscle cells (ATCC No. ATCC CRL-1476) and the probes used were specific for rat JNK1, JNK2 or JNK3 (see infra). A10 cells were grown and treated with oligonucleotides essentially as described by (Cioffi et al. Mol. Pharmacol., 1997, 51, 383).
(§2) These antisense compounds were tested for their ability to modulate levels of p54? (JNK1) and p54a (JNK2) mRNA in A10 cells via Northern assays. Due to the high degree of sequence identity between the human and rat genes, radiolabeled human JNK1 (Example 3) and JNK2 (Example 4) cDNAs functioned as specific probes for the rat homologs.
These antisense compounds were tested for their ability to modulate levels of p54a (JNK2) mRNA in A10 cells using the radiolabeled human JNK2 cDNA as a probe as described supra. Oligonucleotides showing levels of inhibition from≧about 60% to about 100% of rat JNK2 mRNA levels include ISIS Nos. 18254, 18255, 18257, 18258, 18259, 18260 and 18265 (SEQ ID NOS:125, 126, 128, 129, 130, 131 and 136, respectively). These oligonucleotides are preferred embodiments of the invention for modulating rat JNK2 expression. […] These oligonucleotides are thus more preferred embodiments of the invention for modulating rat JNK2 expression. ISIS 18259 (SEQ ID NO:130) was chosen for use in further studies (infra).
(§3) A dose response study was conducted using oligonucleotides targeted to rat JNK1 (ISIS 21859; SEQ ID NO:113) and JNK2 (ISIS 18259; SEQ ID NO:130) and Northern assays.

[2] = test system: JNK1 mRNA; assay: Northern assay, JNK1 mRNA expression in A549 cells; format: cell-based, human; conditions: for RNA % Inhibition: JNK1 mRNA; for dose- and sequence-dependent response on JNK1 mRNA levels: A549 cells, 50, 100, 200 and 400 nM
[3] = test system: rat JNK1 mRNA; assay: Northern assay, rat JNK1 (p54?) mRNA in A10 cells; format: cell-based; conditions: for inhibition of rat JNK1 mRNA levels: Table 20
Protocol: as §1, §2, §3

[4] = test system: JNK2 mRNA; assay: Northern assay, JNK2 mRNA expression in A549 cells; format: cell-based, human
Protocol: In order to evaluate the activity of potential JNK-modulating oligonucleotides, human lung carcinoma cell line A549 (American Type Culture Collection, 10801 University Boulevard, Manassas, Va. 20110-2209, No. ATCC CCL-185) cells or other cell lines as indicated in the Examples, were grown and treated with oligonucleotides or control solutions as detailed below. After harvesting, cellular extracts were prepared and examined for specific JNK mRNA levels or JNK protein levels (i.e., Northern or Western assays, respectively). In all cases, “% expression” refers to the amount of JNK-specific signal in an oligonucleotide-treated cell relative to an untreated cell (or a cell treated with a control solution that lacks oligonucleotide), and “% inhibition” is calculated as
100%−%Expression=%Inhibition.
The mRNA expression of each JNK protein was determined by using a nucleic acid probe specifically hybridizable thereto. Nucleic acid probes specific for JNK1, JNK2 and JNK3 are described in Examples 3, 4 and 5, respectively. The probes were radiolabelled by means well known in the art (see, e.g., Short Protocols in Molecular Biology, 2nd Ed., Ausubel et al., Eds., John Wiley & Sons, New York, 1992, pages 3-11 to 2-3-44 and 4-17 to 4-18; Ruth, Chapter 6 In: Methods in Molecular Biology, Vol. 26: Protocols for Oligonucleotide Conjugates, Agrawal, ed., Humana Press Inc., Totowa, N.J., 1994, pages 167-185; and Chapter 10 In: Molecular Cloning: A Laboratory Manual, 2nd Ed., Sambrook et al., Eds., pages 10.1-10.70). The blots were stripped and reprobed with a ^32P-labeled glyceraldehyde 3-phosphate dehydrogenase (G3PDH) probe (Clontech Laboratories, Inc., Palo Alto, Calif.) in order to confirm equal loading of RNA and to allow the levels of JNK transcripts to be normalized with regard to the G3PDH signals.
A549 cells were grown in T-75 flasks until 80-90% confluent. At this time, the cells were washed twice with 10 mL of media (DMEM), followed by the addition of 5 mL of DMEM containing 20 μg/mL of LIPOFECTIN™ (i.e., 1:1 (w/w) DOTMA/DOPE, Life Technologies, Gaithersburg, Md.; DOTMA=N-[1-(2,3-dioleyoxy)propyl]-N,N,N-trimethylammonium chloride; DOPE=dioleoyl phosphatidylethanolamine). The oligonucleotides were added from a 10 μM stock solution to a final concentration of 400 nM, and the two solutions were mixed by swirling the flasks. As a control, cells were treated with LIPOFECTIN™ without oligonucleotide under the same conditions and for the same times as the oligonucleotide-treated samples. After 4 hours at 37° C., the medium was replaced with fresh DMEM containing 10% serum. The cells were allowed to recover for 18 hours. Total cellular RNA was then extracted in guanidinium, subject to gel electrophoresis and transferred to a filter according to techniques known in the art (see, e.g., Chapter 7 In: Molecular Cloning: A Laboratory Manual, 2nd Ed., Sambrook et al., Eds., pages 7.1-7.87, and Short Protocols in Molecular Biology, 2nd Ed., Ausubel et al., Eds., John Wiley & Sons, New York, 1992, pages 2-24 to 2-30 and 4-14 to 4-29). Filters were typically hybridized overnight to a probe specific for the particular JNK gene of interest in hybridization buffer (25 mM KPO4, pH 7.4; 5×SSC; 5× Denhardt's solution, 100 μg/ml Salmon sperm DNA and 50% formamide) (Alahari et al., Nucl. Acids Res., 1993, 21, 4079). This was followed by two washes with 1×SSC, 0.1% SDS and two washes with 0.25×SSC, 0.1% SDS. Hybridizing bands were visualized by exposure to X-OMAT AR film and quantitated using a PHOSPHORIMAGER™ essentially according to the manufacturer's instructions (Molecular Dynamics, Sunnyvale, Calif.).
In initial screenings of a set of oligonucleotides derived from the JNK2 sequence (Table 9) for biological activity, a cDNA clone of JNK2 (Kallunki et al., Genes & Development, 1994, 8, 2996) was radiolabeled and used as a JNK2-specific probe in Northern blots. […]

[5] = t = 48 h, 300 nM for initial 20 hours then 200 nM for 4 hours

18265 (antisense eTeGeTe[5mC]eA*dG*d[5mC]*dT*d[5mC]*dT*dA*d[5mC]*dA*dT*dT*eAeGeGe[5mC]eA) [compound 18265]
inhibition of rat JNK2 mRNA levels ([1]; A10 cells): ≥ 60%

15348 (antisense CTCTCTGTAGGCCCGCTTGG; wingmer, 5' 2'-MOE, phosphorothioate, chemistry not fully specified) [compound 15348]
RNA % Inhibition [2, 5]: > 70% | RNA % Inhibition ([2]; t = 72 h): > 70%

21861 (antisense CGGTAGGCTCGCTTAGCATG; 2'-O-methyl wings, phosphorothioate gap, chemistry not fully specified) [compound 21861]
inhibition of rat JNK1 mRNA levels [3]: at least 90% | capacity to modulate both JNK1 and JNK2 (Pan JNK) ([1]; A10 cells): demonstrated a capacity to modulate both JNK1 and JNK2

18259 (antisense eGe[5mC]eTe[5mC]eA*dG*dT*dG*dG*dA*d[5mC]*dA*dT*dG*dG*eAeTeGeAeG) [compound 18259]
dose response, levels of mRNA encoding rat JNK2 ([1]; A10 cells, Northern assays): specifically modulate

18257 (antisense eGeAeTeAeT*d[5mC]*dA*dA*d[5mC]*dA*dT*dT*d[5mC]*dT*d[5mC]*e[5mC]eTeTeGeT) [compound 18257]
inhibition of rat JNK2 mRNA levels ([1]; A10 cells): ≥ 60%

C^sT^sT^sT^sC^sC^sG^sT^sT^sG^sG^sA^sC^sC^sC^sC^sT^sG^sG^sG (dC*dT*dT*dT*dC*dC*dG*dT*dT*dG*dG*dA*dC*dC*dC*dC*dT*dG*dG*dG; further chemistry not given here) [ISIS 14321, reference compound]
dose- and sequence-dependent response on JNK1 mRNA levels [2]: neither of the control oligonucleotides effect any consistent response

12567 (antisense dG*dG*dT*dC*dC*dC*dG*dT*dC*dG*dA*dG*dG*dC*dA*dT*dC*dA*dA*dG) [compound 12567]
% EXPRESSION ([4]; JNK2 mRNA, A549 cells, 400 nM oligonucleotide, relative to control): 18%

21862 (antisense CTAGGGATTTCTGTGGTGTG; 2'-O-methyl wings, phosphorothioate gap, chemistry not fully specified) [compound 21862]
inhibition of rat JNK1 mRNA levels [3]: at least 90%

C^sC^sA^sA^sG^sC^sG^sG^sG^sC^sC^sT^sA^sC^sA^sG^sA^sG^sA^sG (sense dC*dC*dA*dA*dG*dC*dG*dG*dG*dC*dC*dT*dA*dC*dA*dG*dA*dG*dA*dG) [ISIS 14320, reference compound]
dose- and sequence-dependent response on JNK1 mRNA levels [2]: neither of the control oligonucleotides effect any consistent response

18260 (antisense eAeTe[5mC]eTeG*d[5mC]*dG*dA*dG*dG*dT*dT*dT*d[5mC]*dA*eTe[5mC]eGeGe[5mC]) [compound 18260]
inhibition of rat JNK2 mRNA levels ([1]; A10 cells): ≥ 60% | % Inhibition ([1]; rat JNK2 (p54a) mRNA in A10 cells, control = LIPOFECTIN only = 0%): 59% | % EXPRESSION ([1]; rat JNK2 (p54a) mRNA in A10 cells, control = LIPOFECTIN only = 100%): 41%

21867 (antisense AGCTTCGTCTACGGAGATCC; 2'-O-methyl wings, phosphorothioate gap, chemistry not fully specified) [compound 21867]
inhibition of rat JNK1 mRNA levels [3]: at least 90% | capacity to modulate both JNK1 and JNK2 (Pan JNK) ([1]; A10 cells): demonstrated a capacity to modulate both JNK1 and JNK2

21865 (antisense CCATTTCTCCCATAATGCAC; 2'-O-methyl wings, phosphorothioate gap, chemistry not fully specified) [compound 21865]
inhibition of rat JNK1 mRNA levels [3]: at least 90%

21860 (antisense TGTTGTCACGTTTACTTCTG; 2'-O-methyl wings, phosphorothioate gap, chemistry not fully specified) [compound 21860]
inhibition of rat JNK1 mRNA levels [3]: at least 90%

21859 (antisense CTCATGATGGCAAGCAATTA; 2'-O-methyl wings, phosphorothioate gap, chemistry not fully specified) [compound 21859]
dose response, levels of mRNA encoding rat JNK1 ([3]; Northern assays): specifically modulate levels of mRNA encoding JNK1 | inhibition of rat JNK1 mRNA levels [3]: at least 90%

21864 (antisense TCGTTCCTGCAGTCCTTGCC; 2'-O-methyl wings, phosphorothioate gap, chemistry not fully specified) [compound 21864]
inhibition of rat JNK1 mRNA levels [3]: at least 90%

21858 (antisense CCTGCTCGCGGCTCCGCGTT; 2'-O-methyl wings, phosphorothioate gap, chemistry not fully specified) [compound 21858]
inhibition of rat JNK1 mRNA levels [3]: at least 90%

15354 (antisense eGeTe[5mC]e[5mC]eG*dG*dG*dC*dC*dA*dG*dG*dC*dC*eAeAeAeGeTe[5mC]) [compound 15354]
inhibition of JNK2 mRNA expression ([4]; 400 nM, Northern assay, Table 12): approximately 80%

15350 (antisense CTCTCTGTAGGCCCGCTTGG; wingmer, 3' P=O 2'-MOE, chemistry not fully specified) [compound 15350]
RNA % Inhibition [2, 5]: 50.8%

21866 (antisense TGAATTCAGGACAAGGTGTT; 2'-O-methyl wings, phosphorothioate gap, chemistry not fully specified) [compound 21866]
inhibition of rat JNK1 mRNA levels [3]: at least 90%

15351 (antisense CTCTCTGTAGGCCCGCTTGG; wingmer, 5' P=O 2'-MOE, chemistry not fully specified) [compound 15351]
RNA % Inhibition [2, 5]: > 70%
